# Measured values: patent publication US9133115B2 (ACHILLION PHARMACEUTICALS, INC., priority 2008, dated 2015)
# Tested on: HCV replicon
# Assay: HCV replicon replication assay (NPT ELISA) in Huh-7 replicon-containing cells
# Format: cell-based
# Conditions: Hepatitis C virus, 72 h; HCV replicon in Huh-7 cells, three days incubation; read-out: EC50
# How it was run: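 Huh-7 cells carrying a bicistronic HCV replicon (HCV-IRES-neo, EMCV-IRES-driven NS3–NS5B, 3′-NTR) were seeded at 6000-7500 cells/well, grown 24 h to 60-70% confluence, then treated with graded compound concentrations. Replication was read as NPT level by capture ELISA (rabbit anti-NPTII, Eu-N1 secondary); interferon alpha served as positive control.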
row,Structure (SMILES),EC50 [nM]
1,"C=C[C@@H]1C[C@]1(NC(=O)[C@@H]1C[C@@H](Oc2cc(-c3ccccc3)nc3cc(OC)ccc23)CN1C(=O)[C@@H](CC(=O)N1CC(Cl)C1)C(C)(C)C)C(=O)NS(=O)(=O)C1CC1 [Compound 224, (2S,4R)-1-((S)-2-tert-butyl-4-(3-chloroazetidin-1-yl)-4-oxobutanoyl)-N-((1R)-1-(cyclopropyl-sulfonylcarbamoyl)-2-vinylcyclopropyl)-4-(7-methoxy-2-phenylquinolin-4-yloxy)pyrrolidine-2-carboxamide]",< 1000
2,"C=C[C@@H]1C[C@]1(NC(=O)[C@@H]1C[C@@H](Oc2cc(-c3ccccc3)nc3ccccc23)CN1C(=O)[C@@H](CC(=O)N1CCCCC1)C(C)(C)C)C(=O)NS(=O)(=O)C1CC1 [Compound 225, (2S,4R)-1-((S)-2-tert-butyl-4-oxo-4-(piperidin-1-yl)butanoyl)-N-((1R)-1-(cyclopropyl-sulfonylcarbamoyl)-2-vinylcyclopropyl)-4-(2-phenylquinolin-4-yloxy)pyrrolidine-2-carboxamide]",< 1000
3,"C=C[C@@H]1C[C@]1(NC(=O)[C@@H]1C[C@@H](Oc2cc(-c3ccccc3)nc3ccc(C)cc23)CN1C(=O)[C@@H](CC(=O)N1CCCCC1)C(C)(C)C)C(=O)NS(=O)(=O)C1CC1 [Compound 226, (2S,4R)-1-((S)-2-tert-butyl-4-oxo-4-(piperidin-1-yl)butanoyl)-N-((1R)-1-(cyclopropyl-sulfonylcarbamoyl)-2-vinylcyclopropyl)-4-(6-methyl-2-phenylquinolin-4-yloxy)pyrrolidine-2-carboxamide]",< 1000
4,"C=C[C@@H]1C[C@]1(NC(=O)[C@@H]1C[C@@H](Oc2cc(-c3ccccc3)nc3cc(OC)ccc23)CN1C(=O)[C@@H](CC(=O)N1CCC1c1ccccc1)C(C)(C)C)C(=O)NS(=O)(=O)C1CC1 (stereo partly drawn) [Compound 227, (2S,4R)-1-((2S)-2-tert-butyl-4-oxo-4-(2-phenylazetidin-1-yl)butanoyl)-N-((1R)-1-(cyclopropyl-sulfonylcarbamoyl)-2-vinylcyclopropyl)-4-(7-methoxy-2-phenylquinolin-4-yloxy)pyrrolidine-2-carboxamide]",< 1000
5,"C=C[C@@H]1C[C@]1(NC(=O)[C@@H]1C[C@@H](Oc2cc(-c3ccccc3)nc3cc(OC)ccc23)CN1C(=O)[C@@H](CC(=O)N1CCC1c1cccc(OC)c1)C(C)(C)C)C(=O)NS(=O)(=O)C1CC1 (stereo partly drawn) [Compound 228, (2S,4R)-1-((2S)-2-tert-butyl-4-(2-(3-methoxyphenyl)aze-tidin-1-yl)-4-oxobutanoyl)-N-((1R)-1-(cyclopropyl-sulfonylcarbamoyl)-2-vinylcyclopropyl)-4-(7-methoxy-2-phenylquinolin-4-yloxy)pyrrolidine-2-carboxamide]",< 1000
6,"C=C[C@@H]1C[C@]1(NC(=O)[C@@H]1C[C@@H](Oc2cc(-c3ccccc3)nc3ccc(OC)cc23)CN1C(=O)[C@@H](CC(=O)N1CCCCC1)C(C)(C)C)C(=O)NS(=O)(=O)C1CC1 [Compound 229, (2S,4R)-1-((S)-2-tert-butyl-4-oxo-4-(piperidin-1-yl)butanoyl)-N-((1R)-1-(cyclopropyl-sulfonylcarbamoyl)-2-vinylcyclopropyl)-4-(6-methoxy-2-phenylquinolin-4-yloxy)pyrrolidine-2-carboxamide]",< 1000
7,"C=C[C@@H]1C[C@]1(NC(=O)[C@@H]1C[C@@H](Oc2cc(-c3nc(C(C)C)cs3)nc3cc(OC)ccc23)CN1C(=O)[C@@H](CC(=O)N1CCCCC1)C(C)(C)C)C(=O)NS(=O)(=O)C1CC1 [Compound 230, (2S,4R)-1-((S)-2-tert-butyl-4-oxo-4-(piperidin-1-yl)butanoyl)-N-((1R)-1-(cyclopropyl-sulfonylcarbamoyl)-2-vinylcyclopropyl)-4-(2-(4-isopropylthiazol-2-yl)-7-methoxyquinolin-4-yloxy)pyrrolidine-2-carboxamide]",< 1000
